One assay concerns MV-4-11 cells. Kind of assay: Cell growth inhibition assay (CellTiter-Glo), MV-4-11. The format is cell-based, human. The following applies: MV-4-11, 4 days; for GI50: Homo sapiens, MV4-11, 96 h, half-maximal growth inhibition; for MV-4-11 TGI: total growth inhibition. On the procedure: (§1) The human leukemia cell lines MV-4-11, THP-1 and K-562 were employed to characterize the effect of BET inhibitors on cellular proliferation and viability. Cells were obtained from the American Type Culture Collection (ATCC) and cultured at 37° C. in a humidified 5% CO2 incubator in the following media: MV-4-11: DMEM high glucose (Animed #1-26F01-I), 10% FCS (Animed #2-01F26-I), 4 mM L-Glutamine (Animed #5-10K50), 1 mM Sodium Pyruvate (Animed # G03625P), 1× Penicillin-Streptomycin (Animed # F12478P); K-562: Iscove's MEM (Animed #1-28F16-I), 10% FCS (Animed #2-01F26-I), 4 mM L-Glutamine (Animed #5-10K50), 1× Penicillin-Streptomycin (Animed # F12478P); THP-1: RPMI-1640 (Animed #1-41F01-I), 10% FCS (Animed #2-01F26-I), 2 mM L-Glutamine (Animed #5-10K50), 10 mM HEPES (Animed #5-31F100), 1 mM Sodium Pyruvate (Animed # G03625P), 1× Penicillin-Streptomycin (Animed # F12478P). The AML lines MV-4-11 and THP-1 are very sensitive to BET inhibitors and show massive cell death upon BET inhibition (Zuber et al., Nature, 478 (2011), 524-8). Compound-mediated suppression of cell proliferation/viability was assessed by quantification of cellular ATP levels using the CellTiter-Glo (CTG) reagent (Promega). Briefly, cells were seeded in 20 μl fresh medium into 384-well plates, followed by addition of 5 μl medium containing compound dilutions at 5-fold their final intended concentration. Dose-response effects were assessed by 3-fold serial dilutions of the test compound, starting at 10 μM. Following incubation of the cells for 4 days at 37° C. and 5% CO2, the effect of inhibitors on cell viability was quantified following addition of 20 μl CTG and luminescence quantification (integration time: 100 ms) as per vendor manual, using a correspondingly equipped Tecan M200 multi-mode platereader (TECAN, Switzerland). For data analysis, the assay background value determined in wells containing medium, but no cells, was subtracted from all data points. To enable differentiation of cytotoxic from cytostatic compounds, the number of viable cells is assessed relative to that observed at the time of compound addition using a separate cell plate (day 0). The effect of a particular test compound concentration on cell proliferation/viability is expressed as percentage of the background- and day 0-corrected luminescence reading obtained for cells treated with vehicle only (DMSO, 0.1% final concentration), which is set as 100%, whereas that luminescence reading for wells containing medium is set as −100%. Compound concentrations leading to half-maximal (1050) and total growth inhibition (TGI) were determined using standard four parameter curve fitting.

For another assay, the target named is BRD4-NUT-fusion (Homo sapiens (Human), UniProt O60885+Q86Y26). The experiment in a line: Nut-foci formation assay (HCS) in HCC2494 NUT midline carcinoma cells. The format is cell-based. Particulars: 24 hours, nuclear BRD4-NUT foci, immunofluorescence. As to the method:
Compound-mediated inhibition of BRD4 activity was monitored by quantification of the number and intensity of nuclear BRD4-NUT foci using automated immunofluorescence microscopy. Briefly, 5000 cells in 20 μl fresh medium were seeded into Poly-D-Lysine-precoated 384-well plates and incubated overnight at 37° C. and 5% CO2, followed by addition of 5 μl medium containing compound dilutions at 5-fold their final intended concentration. Dose-response effects were assessed by 3-fold serial dilutions of the test compound, starting at 10 μM. […] Assay plates were imaged using the appropriate filter sets on the Cellomics VTi automated fluorescence microscopy platform (ThermoFisher Scientific) and the population average of the number of NUT-foci per nucleus is quantified using the Cellomics Spot Detection BioApplication image analysis algorithm (ThermoFisher Scientific). The effect of a particular test compound concentration on NUT-foci number and intensity is expressed as percentage of the value obtained for cells treated with vehicle only (DMSO, 0.1% final concentration), which was set as 100.

Another assay concerns THP-1 cells. Kind of assay: Cell growth inhibition assay (CellTiter-Glo), THP-1. The format is cell-based, human. Particulars: THP-1, 4 days; for GI50: Homo sapiens, 96 h, half-maximal growth inhibition; for THP-1 TGI: total growth inhibition. As to the method: as §1
A general note: ATP-based viability assays read luminescence as a measure of living cells.

Data on 13 molecules can be found in US9714249B2 (Novartis AG, priority 2013, dated 2017).

SMILES strings stand for the structures.

What is called GI50 is the concentration that inhibits growth by half. By IC50 is commonly meant the midpoint of a concentration-inhibition curve. Read a low IC50 as greater potency in that assay.

As for `COc1ncccc1-c1nn(C)c2c1C(=O)N(c1cc(C)c(=O)n(C)c1)[C@@H]2c1ccc(Cl)cc1` [Example 16, (R)-6-(4-chlorophenyl)-5-(1,5-dimethyl-6-oxo-1,6-dihydropyridin-3-yl)-3-(2-methoxypyridin-3-yl)-1-methyl-5,6-dihydropyrrolo[3,4-c]pyrazol-4(1H)-one], in the assay with MV-4-11 cells, the GI50 is 0.0236 µM and the “MV-4-11 TGI” value amounted to 0.0437 µM. At BRD4-NUT-fusion, the IC50 is 0.0606 µM. Further, in the assay with THP-1 cells, the GI50 is 0.043 µM and the “THP-1 TGI” value was 0.0922 µM.

As for `Cc1[nH]nc2c1C(=O)N(c1cc(Cl)c(=O)n(C)c1)C2c1ccc(Cl)cc1` (centres unmarked) [Example 6, 5-(5-chloro-1-methyl-6-oxo-1,6-dihydropyridin-3-yl)-6-(4-chlorophenyl)-3-methyl-5,6-dihydropyrrolo[3,4-c]pyrazol-4(2H)-one], in the assay on MV-4-11 cells, halving of growth (GI50) required 0.0741 µM and the “MV-4-11 TGI” value was 0.134 µM. This molecule displayed an IC50 against BRD4-NUT-fusion of 0.108 µM. For the same molecule, in the assay with THP-1 cells, halving of growth (GI50) required 0.189 µM and the “THP-1 TGI” value was 0.352 µM.

As for `COc1ncc(-n2nc(C)c3c2C(c2ccc(Cl)cc2)N(c2cc(Cl)c(=O)n(C)c2)C3=O)cn1` (centres unmarked) [Example 8a, 5-(5-chloro-1-methyl-6-oxo-1,6-dihydropyridin-3-yl)-6-(4-chlorophenyl)-1-(2-methoxypyrimidin-5-yl)-3-methyl-5,6-dihydropyrrolo[3,4-c]pyrazol-4(1H)-one], in the assay on MV-4-11 cells, the GI50 is 0.141 µM and the “MV-4-11 TGI” value was 0.294 µM. Moreover, the IC50 against BRD4-NUT-fusion is 0.298 µM. In addition, in the assay on THP-1 cells, the GI50 stood at 0.127 µM and the “THP-1 TGI” value was 0.493 µM.

With `Cc1nn(C2CC2)c2c1C(=O)N(c1cc(C)c(=O)n(C)c1)C2c1ccc(Cl)cc1` (centres unmarked) [Example 11, 6-(4-chlorophenyl)-1-cyclopropyl-5-(1,5-dimethyl-6-oxo-1,6-dihydropyridin-3-yl)-3-methyl-5,6-dihydropyrrolo[3,4-c]pyrazol-4(1H)-one], in the assay on MV-4-11 cells, halving of growth (GI50) required 0.0186 µM and the “MV-4-11 TGI” value worked out at 0.0294 µM. On BRD4-NUT-fusion, this molecule returned an IC50 of 0.0417 µM. Besides, in the assay with THP-1 cells, halving of growth (GI50) required 0.0366 µM and the “THP-1 TGI” value is 0.0822 µM.

As to `Cc1cc(N2C(=O)c3c(C4CC4)nn(CCO)c3C2c2ccc(Cl)cc2)cn(C)c1=O` (centres unmarked) [Example 3, 6-(4-chlorophenyl)-3-cyclopropyl-5-(1,5-dimethyl-6-oxo-1,6-dihydropyridin-3-yl)-1-(2-hydroxyethyl)-5,6-dihydropyrrolo[3,4-c]pyrazol-4(1H)-one], in the assay with MV-4-11 cells, the GI50 came out at 0.0375 µM and the “MV-4-11 TGI” value came out at 0.064 µM. On BRD4-NUT-fusion, the IC50 turned out to be 0.049 µM. For the same molecule, in the assay on THP-1 cells, growth was halved (GI50) at 0.0901 µM and the “THP-1 TGI” value came to 0.264 µM.

With `Cc1nn(-c2cccnc2F)c2c1C(=O)N(c1cc(C)c(=O)n(C)c1)C2c1ccc(Cl)cc1` (centres unmarked) [Example 19, 6-(4-chlorophenyl)-5-(1,5-dimethyl-6-oxo-1,6-dihydropyridin-3-yl)-1-(2-fluoropyridin-3-yl)-3-methyl-5,6-dihydropyrrolo[3,4-c]pyrazol-4(1H)-one], in the assay on MV-4-11 cells, the GI50 was 0.0505 µM and the “MV-4-11 TGI” value amounted to 0.0798 µM. Besides, the IC50 on BRD4-NUT-fusion amounted to 0.0667 µM. Also, in the assay with THP-1 cells, it took 0.091 µM to inhibit growth by half (GI50) and the “THP-1 TGI” value worked out at 0.164 µM.

For the molecule `COc1ncccc1-c1nn(C)c2c1C(=O)N(c1cc(C)c(=O)n(C)c1)C2c1ccc(Cl)cc1` (centres unmarked) [Example 15, 6-(4-chlorophenyl)-5-(1,5-dimethyl-6-oxo-1,6-dihydropyridin-3-yl)-3-(2-methoxypyridin-3-yl)-1-methyl-5,6-dihydropyrrolo[3,4-c]pyrazol-4(1H)-one], in the assay on MV-4-11 cells, halving of growth (GI50) required 0.0546 µM and the “MV-4-11 TGI” value turned out to be 0.0924 µM. The same molecule had an IC50 at BRD4-NUT-fusion of 0.0607 µM. In the assay on THP-1 cells, growth was halved (GI50) at 0.0678 µM and the “THP-1 TGI” value was 0.143 µM.

Regarding `COc1ccc(-n2nc(C)c3c2C(c2ccc(Cl)cc2)N(c2cc(C)c(=O)n(C)c2)C3=O)cn1` (centres unmarked) [Example 20b, 6-(4-chlorophenyl)-5-(1,5-dimethyl-6-oxo-1,6-dihydropyridin-3-yl)-1-(6-methoxypyridin-3-yl)-3-methyl-5,6-dihydropyrrolo[3,4-c]pyrazol-4(1H)-one], in the assay on MV-4-11 cells, the GI50 was 0.0386 µM and the “MV-4-11 TGI” value was found to be 0.0542 µM. Besides, the 50% inhibitory concentration (IC50) against BRD4-NUT-fusion amounted to 0.0576 µM. Further, in the assay on THP-1 cells, growth was halved (GI50) at 0.0931 µM and the “THP-1 TGI” value came to 0.156 µM.

Take `COc1ccc(-n2nc3c(c2C)C(=O)N(c2cc(C)c(=O)n(C)c2)C3c2ccc(Cl)cc2)cn1` (centres unmarked) [Example 20a, 6-(4-chlorophenyl)-5-(1,5-dimethyl-6-oxo-1,6-dihydropyridin-3-yl)-2-(6-methoxypyridin-3-yl)-3-methyl-5,6-dihydropyrrolo[3,4-c]pyrazol-4(2H)-one]: in the assay with MV-4-11 cells, the GI50 was determined as 0.0496 µM and the “MV-4-11 TGI” value is 0.065 µM. For the same molecule, the IC50 on BRD4-NUT-fusion was 0.0736 µM. For the same molecule, in the assay on THP-1 cells, growth was halved (GI50) at 0.104 µM and the “THP-1 TGI” value worked out at 0.178 µM.

Consider `COc1ncc(-n2nc3c(c2C)C(=O)N(c2cc(Cl)c(=O)n(C)c2)C3c2ccc(Cl)cc2)cn1` (centres unmarked) [Example 8b, 5-(5-chloro-1-methyl-6-oxo-1,6-dihydropyridin-3-yl)-6-(4-chlorophenyl)-2-(2-methoxypyrimidin-5-yl)-3-methyl-5,6-dihydropyrrolo[3,4-c]pyrazol-4(2H)-one], for which, in the assay on MV-4-11 cells, it took 0.117 µM to inhibit growth by half (GI50) and the “MV-4-11 TGI” value came out at 0.195 µM. Moreover, 0.058 µM corresponded to half-maximal inhibition on BRD4-NUT-fusion (IC50). In the assay with THP-1 cells, halving of growth (GI50) required 0.293 µM and the “THP-1 TGI” value stood at 0.562 µM.

Take `COc1ncccc1-n1nc2c(c1C)C(=O)N(c1cc(C)c(=O)n(C)c1)C2c1ccc(Cl)cc1` (centres unmarked) [Example 17b, 6-(4-chlorophenyl)-5-(1,5-dimethyl-6-oxo-1,6-dihydropyridin-3-yl)-2-(2-methoxypyridin-3-yl)-3-methyl-5,6-dihydropyrrolo[3,4-c]pyrazol-4(2H)-one]: in the assay with MV-4-11 cells, halving of growth (GI50) required 0.027 µM and the “MV-4-11 TGI” value is 0.0343 µM. Moreover, the IC50 on BRD4-NUT-fusion is 0.0403 µM. In addition, in the assay with THP-1 cells, the GI50 came to 0.0724 µM and the “THP-1 TGI” value is 0.117 µM.

In the case of `Cc1cc(N2C(=O)c3c(C4CC4)nn(-c4ccnn4C)c3C2c2ccc(Cl)cc2)cn(C)c1=O` (centres unmarked) [Example 5, 6-(4-chlorophenyl)-3-cyclopropyl-5-(1,5-dimethyl-6-oxo-1,6-dihydropyridin-3-yl)-1-(1-methyl-1H-pyrazol-5-yl)-5,6-dihydropyrrolo[3,4-c]pyrazol-4(1H)-one], in the assay with MV-4-11 cells, the GI50 was 0.0538 µM and the “MV-4-11 TGI” value was 0.1 µM. Also, at BRD4-NUT-fusion, the IC50 came out at 0.138 µM. Besides, in the assay on THP-1 cells, the GI50 came to 0.101 µM and the “THP-1 TGI” value was 0.179 µM.

On to `Cc1nn(C(C)C)c2c1C(=O)N(c1cc(C)c(=O)n(C)c1)C2c1ccc(Cl)cc1` (centres unmarked) [Example 12, 6-(4-chlorophenyl)-5-(1,5-dimethyl-6-oxo-1,6-dihydropyridin-3-yl)-1-isopropyl-3-methyl-5,6-dihydropyrrolo[3,4-c]pyrazol-4(1H)-one], for which, in the assay on MV-4-11 cells, the GI50 was 0.0191 µM and the “MV-4-11 TGI” value was 0.0374 µM. For the same molecule, the IC50 against BRD4-NUT-fusion stood at 0.0484 µM. For the same molecule, in the assay on THP-1 cells, the 50% growth inhibitory concentration (GI50) was 0.0622 µM and the “THP-1 TGI” value is 0.112 µM.
